Assay results as given in patent publication US5030760A, “Tetrahydrophthalimides, and their production and use” (Sumitomo Chemical Company, Ltd., priority 1981, dated 1991).

Key:
velvetleaf [1] = test: Test Example 1, foliar treatment, herbicidal activity; format: in vivo, Abutilon theophrasti; conditions: 3 weeks; note: ranges in brackets are in %
Method in brief: (§1)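 Plants were sown in upland soil and grown 2 weeks in a greenhouse, then sprayed on the foliage with the compound as an emulsifiable concentrate dispersed in water with a spreading agent (5 liters per are). After 3 further weeks, aerial fresh weight relative to untreated (taken as 100) was converted to a rating.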

corn [2] = test: Test Example 4, pre-emergence treatment, phytotoxicity to corn; format: in vivo; conditions: 20 days; note: ranges in brackets are in %
Method in brief: (§2)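 Rating score derived from aerial-part fresh weight relative to untreated plants (taken as 100) after 20 days of greenhouse growth. Compound applied as emulsifiable concentrate in water plus spreading agent, sprayed over freshly sown upland soil at 5 liters per are.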

sicklepod = test: Test Example 5, spraying over the top, herbicidal activity; format: in vivo, Cassia obtusifolia; conditions: sprayed over the top, 20 days; note: ranges in brackets are in %
Procedure: (§3) The application of the tetrahydrophthalimides (I) as herbicides will be illustratively shown in the following Examples wherein the phytotoxicity to cultivated plants and the herbicidal activity on weeds were evaluated as follows: the aerial parts of the test plants were cut off and weighed (fresh weight); the percentage of the fresh weight of the treated plant to that of the untreated plant was calculated with the latter fresh weight taken as 100; and the crop damage and the herbicidal activity were evaluated by the standard given in the table below. The rating values of phytotoxicity, 0 and 1, and those of herbicidal effect, 5 and 4, are generally regarded as satisfactory to protect cultivated plants and control weeds, respectively. The rating values in the paddy field test alone were calculated from the dry weight of the test plants.
(§4) Plastic trays (35 cm×25 cm×15 cm) were filled with upland field soil, and the seeds of tall morningglory, velvetleaf, jimsonweed, sicklepod, hemp sesbania, prickly side, Johnsongrass, green foxtail and large crabgrass and the seeds of soybean were sown therein. A designed amount of the test compound formulated into a wettable powder according to Preparation Example 1 and dispersed in water was sprayed over the top by means of a small hand sprayer at a spray volume of 5 liters per are. After the spraying, the test plants were grown in greenhouse for 20 days, and phytotoxicity and herbicidal activity were examined.

Johnsongrass = test: Test Example 4, pre-emergence treatment, herbicidal activity; format: in vivo, Sorghum halepense; conditions: 20 days; note: ranges in brackets are in %
Method in brief: as §2

jimsonweed = test: Test Example 5, spraying over the top, herbicidal activity; format: in vivo, Datura stramonium; conditions: sprayed over the top, 20 days; note: ranges in brackets are in %
Procedure: as §3, §4

barnyardgrass [3] = test: Test Example 6, paddy pot perfusion, herbicidal activity; format: in vivo, Echinochloa crus-galli; conditions: 3 weeks, dry weight; note: ranges in brackets are in %
Procedure: as §3
(§5) Wagner's pots (1/5000 are) were filled with paddy field soil containing the seeds of broad-leaved weeds (e.g. monochoria, false pimpernel, toothcup) and the seeds of barnyardgrass and hardstem bulrush, and water was poured therein until the depth of water became 4 cm. Rice seedlings of the 3.5-leaf stage and the tubers of arrowhead were transplanted therein and grown for 2 days in a greenhouse. A designed amount of the test compound formulated in an emulsifiable concentrate according to Preparation Example 2 was applied to the pots by perfusion. Thereafter, the test plants were grown for an additional 3 weeks in the greenhouse, and herbicidal activity and phytotoxicity were examined. In this treatment, the emulsifiable concentrate was dispersed in water for application at a perfusion volume of 10 liters per are.

barnyardgrass [4] = test: Test Example 1, foliar treatment, herbicidal activity; format: in vivo, Echinochloa crus-galli; conditions: 3 weeks; note: ranges in brackets are in %
Method in brief: as §1

velvetleaf [5] = test: Test Example 5, spraying over the top, herbicidal activity; format: in vivo, Abutilon theophrasti; conditions: sprayed over the top, 20 days; note: ranges in brackets are in %
Procedure: as §3, §4

tall morningglory [6] = test: as above; format: in vivo, Ipomoea purpurea; conditions: sprayed over the top, 20 days
Procedure: as §3, §4

wild mustard = test: Test Example 1, foliar treatment, herbicidal activity; format: in vivo, Brassica kaber; conditions: 3 weeks
Method in brief: as §1

tall morningglory [7] = test: Test Example 2, field foliar treatment, herbicidal activity; format: in vivo, Ipomoea purpurea; conditions: 3 weeks; note: ranges in brackets are in %
Procedure: as §3
(§6) Seeds of corn and broad-leaved weeds such as cocklebur, common purslane and tall morningglory were sown in the field as previously laid up in ridges, each ridge having an upper width of 1 m. At the time when the corn grew up to the 6-leaf stage and the broad-leaved weeds up to 2 to 5-leaf stages, a designed amount of the test compound formulated into an emulsifiable concentrate according to Preparation Example 2 and dispersed in water was sprayed to the foliage of the test plants with three replications over the top by means of a small hand sprayer at a spray volume of 5 liters per are. After cultivation for 3 weeks, herbicidal activity and phytotoxicity were examined.

velvetleaf [8] = test: Test Example 3, soil surface spraying, herbicidal activity; format: in vivo, Abutilon theophrasti; conditions: 20 days; note: ranges in brackets are in %
Procedure: as §3
(§7) Plastic trays (35 cm×25 cm×15 cm) were filled with upland field soil, and the seeds of tall morningglory, velvetleaf and sicklepod and the seeds of corn were sown therein. A designed amount of the test compounds formulated into a wettable powder according to Preparation Example 1 was dispersed in water and applied by spraying at a spray volume of 5 liters per are to the whole surface of the soil. After the spraying, the test plants were placed in a greenhouse and grown for 20 days, and herbicidal activity and phytotoxicity were examined.

corn [9] = test: Test Example 3, soil surface spraying, phytotoxicity to corn; format: in vivo; conditions: 20 days; note: ranges in brackets are in %
Procedure: as §3, §7

arrowhead = test: Test Example 6, paddy pot perfusion, herbicidal activity; format: in vivo, Sagittaria pygmaea; conditions: 3 weeks, dry weight; note: ranges in brackets are in %
Procedure: as §3, §5

hemp sesbania = test: Test Example 5, spraying over the top, herbicidal activity; format: in vivo, Sesbania exaltator; conditions: sprayed over the top, 20 days; note: ranges in brackets are in %
Procedure: as §3, §4

large crabgrass = test: as above; format: in vivo, Digitaria sanguinalis; conditions: sprayed over the top, 20 days; note: ranges in brackets are in %
Procedure: as §3, §4

corn [10] = test: Test Example 2, field foliar treatment, phytotoxicity to corn; format: in vivo; conditions: 3 weeks; note: ranges in brackets are in %
Procedure: as §3, §6

green foxtail = test: Test Example 5, spraying over the top, herbicidal activity; format: in vivo, Setaria viridis; conditions: sprayed over the top, 20 days; note: ranges in brackets are in %
Procedure: as §3, §4

rice plant = test: Test Example 6, paddy pot perfusion, phytotoxicity to rice plant; format: in vivo; conditions: 3 weeks, dry weight; note: ranges in brackets are in %
Procedure: as §3, §5
Throughout, for Herbicidal activity, Tall morningglory: ranges in brackets are in %.

SMILES: O=C1C2=C(CCCC2)C(=O)N1c1ccc(Cl)cc1F [A, 2-fluoro-4-chlorophenyltetrahydrophthalimide, reference compound]
- Herbicidal activity, Velvetleaf (velvetleaf [1]; 1.25 g/are): 5 (0)
- Herbicidal activity, Velvetleaf (velvetleaf [1]; 5 g/are): 5 (0)
- Phytotoxicity, Corn (corn [2]; 2.5 g/are): 0 (100)
- Phytotoxicity, Corn (corn [2]; 10 g/are): 2 (80-89)
- Herbicidal activity, Sicklepod (sicklepod; 10 g/are): 1 (41-60)
- Herbicidal activity, Sicklepod (sicklepod; 20 g/are): 2 (21-40)
- Herbicidal activity, Johnsongrass (Johnsongrass; 2.5 g/are): 1 (41-60)
- Herbicidal activity, Johnsongrass (Johnsongrass; 10 g/are): 3 (11-20)
- Herbicidal activity, Jimsonweed (jimsonweed; 10 g/are): 4 (1-10)
- Herbicidal activity, Jimsonweed (jimsonweed; 20 g/are): 5 (0)
- Herbicidal activity, Barnyardgrass (barnyardgrass [3]; 1.25 g/are): 1 (41-60)
- Herbicidal activity, Barnyardgrass (barnyardgrass [3]; 2.5 g/are): 2 (21-40)
- Herbicidal activity, Barnyardgrass (barnyardgrass [4]; 1.25 g/are): 1 (41-60)
- Herbicidal activity, Barnyardgrass (barnyardgrass [4]; 5 g/are): 3 (11-20)
- Herbicidal activity, Velvetleaf (velvetleaf [5]; 10 g/are): 5 (0)
- Herbicidal activity, Velvetleaf (velvetleaf [5]; 20 g/are): 5 (0)
- Herbicidal activity, Tall morningglory (tall morningglory [6]; 10 g/are): 0 (61-100)
- Herbicidal activity, Tall morningglory (tall morningglory [6]; 20 g/are): 1 (41-60)
- Herbicidal activity, Wild mustard (wild mustard; 1.25 g/are): 3 (11-20)
- Herbicidal activity, Wild mustard (wild mustard; 5 g/are): 5 (0)
- Herbicidal activity, Tall morningglory (tall morningglory [7]; 0.63 g/are): 2 (21-40)
- Herbicidal activity, Tall morningglory (tall morningglory [7]; 1.25 g/are): 2 (21-40)
- Herbicidal activity, Velvetleaf (velvetleaf [8]; 5 g/are): 3 (11-20)
- Herbicidal activity, Velvetleaf (velvetleaf [8]; 10 g/are): 4 (1-10)
- Phytotoxicity, Corn (corn [9]; 5 g/are): 2 (80-89)
- Phytotoxicity, Corn (corn [9]; 10 g/are): 3 (60-79)
- Herbicidal activity, Arrowhead (arrowhead; 1.25 g/are): 0 (61-100)
- Herbicidal activity, Arrowhead (arrowhead; 2.5 g/are): 0 (61-100)
- Herbicidal activity, Hemp sesbania (hemp sesbania; 10 g/are): 3 (11-20)
- Herbicidal activity, Hemp sesbania (hemp sesbania; 20 g/are): 5 (0)
- Herbicidal activity, Large crabgrass (large crabgrass; 10 g/are): 5 (0)
- Herbicidal activity, Large crabgrass (large crabgrass; 20 g/are): 5 (0)
- Phytotoxicity, Corn (corn [10]; 0.63 g/are): 0 (100)
- Phytotoxicity, Corn (corn [10]; 1.25 g/are): 1 (90-99)
- Herbicidal activity, Green foxtail (green foxtail; 10 g/are): 5 (0)
- Herbicidal activity, Green foxtail (green foxtail; 20 g/are): 5 (0)
- Phytotoxicity, Rice plant (rice plant; 1.25 g/are): 0 (100)
- Phytotoxicity, Rice plant (rice plant; 2.5 g/are): 1 (90-99)

SMILES: CC(C)Oc1cc(N2C(=O)C3=C(CCCC3)C2=O)c(Cl)cc1Cl [B, 2,4-dichloro-5-isopropoxyphenyltetrahydrophthalimide, reference compound]
- Herbicidal activity, Velvetleaf (velvetleaf [1]; 1.25 g/are): 5 (0)
- Herbicidal activity, Velvetleaf (velvetleaf [1]; 5 g/are): 5 (0)
- Phytotoxicity, Corn (corn [2]; 5 g/are): 0 (100)
- Phytotoxicity, Corn (corn [2]; 20 g/are): 1 (90-99)
- Herbicidal activity, Sicklepod (sicklepod; 10 g/are): 0 (61-100)
- Herbicidal activity, Sicklepod (sicklepod; 20 g/are): 2 (21-40)
- Herbicidal activity, Johnsongrass (Johnsongrass; 5 g/are): 1 (41-60)
- Herbicidal activity, Johnsongrass (Johnsongrass; 20 g/are): 2 (21-40)
- Herbicidal activity, Jimsonweed (jimsonweed; 10 g/are): 4 (1-10)
- Herbicidal activity, Jimsonweed (jimsonweed; 20 g/are): 4 (1-10)
- Herbicidal activity, Barnyardgrass (barnyardgrass [3]; 1.25 g/are): 1 (41-60)
- Herbicidal activity, Barnyardgrass (barnyardgrass [3]; 2.5 g/are): 3 (11-20)
- Herbicidal activity, Barnyardgrass (barnyardgrass [4]; 1.25 g/are): 0 (61-100)
- Herbicidal activity, Barnyardgrass (barnyardgrass [4]; 5 g/are): 2 (21-40)
- Herbicidal activity, Velvetleaf (velvetleaf [5]; 10 g/are): 4 (1-10)
- Herbicidal activity, Velvetleaf (velvetleaf [5]; 20 g/are): 5 (0)
- Herbicidal activity, Tall morningglory (tall morningglory [6]; 10 g/are): 0 (61-100)
- Herbicidal activity, Tall morningglory (tall morningglory [6]; 20 g/are): 0 (61-100)
- Herbicidal activity, Wild mustard (wild mustard; 1.25 g/are): 2 (21-40)
- Herbicidal activity, Wild mustard (wild mustard; 5 g/are): 3 (11-20)
- Herbicidal activity, Tall morningglory (tall morningglory [7]; 0.63 g/are): 3 (11-20)
- Herbicidal activity, Tall morningglory (tall morningglory [7]; 1.25 g/are): 4 (1-10)
- Herbicidal activity, Velvetleaf (velvetleaf [8]; 5 g/are): 1 (41-60)
- Herbicidal activity, Velvetleaf (velvetleaf [8]; 10 g/are): 3 (11-20)
- Phytotoxicity, Corn (corn [9]; 5 g/are): 0 (100)
- Phytotoxicity, Corn (corn [9]; 10 g/are): 0 (100)
- Herbicidal activity, Arrowhead (arrowhead; 1.25 g/are): 0 (61-100)
- Herbicidal activity, Arrowhead (arrowhead; 2.5 g/are): 0 (61-100)
- Herbicidal activity, Hemp sesbania (hemp sesbania; 10 g/are): 1 (41-60)
- Herbicidal activity, Hemp sesbania (hemp sesbania; 20 g/are): 2 (21-40)
- Herbicidal activity, Large crabgrass (large crabgrass; 10 g/are): 3 (11-20)
- Herbicidal activity, Large crabgrass (large crabgrass; 20 g/are): 4 (1-10)
- Phytotoxicity, Corn (corn [10]; 0.63 g/are): 1 (90-99)
- Phytotoxicity, Corn (corn [10]; 1.25 g/are): 1 (90-99)
- Herbicidal activity, Green foxtail (green foxtail; 10 g/are): 3 (11-20)
- Herbicidal activity, Green foxtail (green foxtail; 20 g/are): 4 (1-10)
- Phytotoxicity, Rice plant (rice plant; 1.25 g/are): 0 (100)
- Phytotoxicity, Rice plant (rice plant; 2.5 g/are): 0 (100)
